In ChEMBL document CHEMBL3797052 (Eur J Med Chem, 2016):

Tests used:
NCI-H460 = experiment: Antiproliferative activity against human NCI-H460 cells assessed as cell growth at 10^-4 M after 48 hrs by sulforhodamine B assay; type: functional; details: NCI-H460, 48 h, read-out: Activity
M14 = experiment: Antiproliferative activity against human M14 cells assessed as cell growth at 10^-7 M after 48 hrs by sulforhodamine B assay; type: functional; details: M14, 48 h, read-out: Activity
[1] = Antiproliferative activity against human HOP62 cells assessed as cell growth at 10^-8 M after 48 hrs by sulforhodamine B assay; type: functional; details: HOP-62, 48 h, read-out: Activity
[2] = Antiproliferative activity against human SNB19 cells assessed as growth inhibition after 48 hrs by sulforhodamine B assay; type: functional; details: SNB-19, 48 h
Malme-3M [3] = experiment: Antiproliferative activity against human MALME-3M cells assessed as cell growth at 10^-8 M after 48 hrs by sulforhodamine B assay; type: functional; details: read-out: Activity
A498 [4] = experiment: Antiproliferative activity against human A498 cells assessed as cell growth at 10^-6 M after 48 hrs by sulforhodamine B assay; type: functional; details: A498, 48 h, read-out: Activity
[5] = Antiproliferative activity against human SF268 cells assessed as cell growth at 10^-8 M after 48 hrs by sulforhodamine B assay; type: functional; details: SF-268, 48 h, read-out: Activity
[6] = Antiproliferative activity against human UO31 cells assessed as cell growth at 10^-8 M after 48 hrs by sulforhodamine B assay; type: functional; details: UO-31, 48 h, read-out: Activity
NCI-H322M = experiment: Antiproliferative activity against human NCI-H322M cells assessed as cell growth at 10^-4 M after 48 hrs by sulforhodamine B assay; type: functional; details: read-out: Activity
[7] = Antiproliferative activity against human OVCAR5 cells assessed as cell growth at 10^-8 M after 48 hrs by sulforhodamine B assay; type: functional; details: OVCAR-5, 48 h, read-out: Activity
[8] = Antiproliferative activity against human LOXIMVI cells assessed as cell growth at 10^-6 M after 48 hrs by sulforhodamine B assay; type: functional; details: LOX IMVI, read-out: Activity
A498 [9] = experiment: Antiproliferative activity against human A498 cells assessed as cell growth at 10^-8 M after 48 hrs by sulforhodamine B assay; type: functional; details: A498, 48 h, read-out: Activity
[10] = Antiproliferative activity against human OVCAR5 cells assessed as cell growth at 10^-6 M after 48 hrs by sulforhodamine B assay; type: functional; details: OVCAR-5, 48 h, read-out: Activity
Malme-3M [11] = experiment: Antiproliferative activity against human MALME-3M cells assessed as growth inhibition after 48 hrs by sulforhodamine B assay; type: functional; details: for CC50: read-out: LC50 (the source's name)
[12] = Antiproliferative activity against human NCI-ADR-RES cells assessed as cell growth at 10^-4 M after 48 hrs by sulforhodamine B assay; type: functional; details: read-out: Activity
NCI-H226 [13] = experiment: Antiproliferative activity against human NCI-H226 cells assessed as cell growth at 10^-7 M after 48 hrs by sulforhodamine B assay; type: functional; details: NCI-H226, 48 h, read-out: Activity
[14] = Antiproliferative activity against human SKOV3 cells assessed as cell growth at 10^-4 M after 48 hrs by sulforhodamine B assay; type: functional; details: SK-OV-3, 48 h, read-out: Activity
[15] = Antiproliferative activity against human SNB19 cells assessed as cell growth at 10^-6 M after 48 hrs by sulforhodamine B assay; type: functional; details: SNB-19, 48 h, read-out: Activity
MDA-MB-468 [16] = experiment: Antiproliferative activity against human MDA-MB-468 cells assessed as cell growth at […] after 48 hrs by sulforhodamine B assay; type: functional; details: MDA-MB-468, 48 h, read-out: Activity
SK-MEL-28 = experiment: Antiproliferative activity against human SK-MEL-28 cells assessed as cell growth at 10^-6 M after 48 hrs by sulforhodamine B assay; type: functional; details: SK-MEL-28, 48 h, read-out: Activity
[17] = Antiproliferative activity against human UACC62 cells assessed as cell growth at 10^-8 M after 48 hrs by sulforhodamine B assay; type: functional; details: UACC-62, 48 h, read-out: Activity
NCI-H226 [18] = experiment: Antiproliferative activity against human NCI-H226 cells assessed as cell growth at 10^-4 M after 48 hrs by sulforhodamine B assay; type: functional; details: NCI-H226, 48 h, read-out: Activity
[19] = Antiproliferative activity against human PC3 cells assessed as cell growth at 10^-4 M after 48 hrs by sulforhodamine B assay; type: functional; details: PC-3, 48 h, read-out: Activity
MDA-MB-231 = experiment: Antiproliferative activity against human MDA-MB-231 cells assessed as growth inhibition after 48 hrs by sulforhodamine B assay; type: functional; details: MDA-MB-231, 48 h; for CC50: read-out: LC50 (the source's name)
MDA-MB-468 [20] = experiment: Antiproliferative activity against human MDA-MB-468 cells assessed as cell growth at 10^-6 M after 48 hrs by sulforhodamine B assay; type: functional; details: MDA-MB-468, 48 h, read-out: Activity
[21] = Antiproliferative activity against human OVCAR4 cells assessed as cell growth at 10^-4 M after 48 hrs by sulforhodamine B assay; type: functional; details: OVCAR-4, 48 h, read-out: Activity
[22] = Antiproliferative activity against human SNB19 cells assessed as cell growth at 10^-8 M after 48 hrs by sulforhodamine B assay; type: functional; details: SNB-19, 48 h, read-out: Activity
ACHN = experiment: Antiproliferative activity against human ACHN cells assessed as cell growth at 10^-7 M after 48 hrs by sulforhodamine B assay; type: functional; details: read-out: Activity
A549 [23] = experiment: Antiproliferative activity against human A549/ATCC cells assessed as cell growth at […] after 48 hrs by sulforhodamine B assay; type: functional; details: A549, 48 h, read-out: Activity
KM12 = experiment: Antiproliferative activity against human KM12 cells assessed as cell growth at 10^-7 M after 48 hrs by sulforhodamine B assay; type: functional; details: KM12, 48 h, read-out: Activity
[24] = Antiproliferative activity against human Hs 578T cells assessed as growth inhibition after 48 hrs by sulforhodamine B assay; type: functional; details: for CC50: read-out: LC50 (the source's name)
NCI-H23 = experiment: Antiproliferative activity against human NCI-H23 cells assessed as cell growth at 10^-7 M after 48 hrs by sulforhodamine B assay; type: functional; details: NCI-H23, 48 h, read-out: Activity
[25] = Antiproliferative activity against human SW620 cells assessed as cell growth at 10^-7 M after 48 hrs by sulforhodamine B assay; type: functional; details: SW-620, 48 h, read-out: Activity
A549 [26] = experiment: Antiproliferative activity against human A549/ATCC cells assessed as cell growth at 10^-8 M after 48 hrs by sulforhodamine B assay; type: functional; details: A549, 48 h, read-out: Activity
[27] = Antiproliferative activity against human RXF393 cells assessed as cell growth at 10^-8 M after 48 hrs by sulforhodamine B assay; type: functional; details: RXF 393, 48 h, read-out: Activity
[28] = molecular target: RAF proto-oncogene serine/threonine-protein kinase (Homo sapiens, UniProt P04049); experiment: Inhibition of human CRAF at 10 uM measured after 40 mins by scintillation counting
RAF proto-oncogene serine/threonine-protein kinase, sequence (P04049 whole entry): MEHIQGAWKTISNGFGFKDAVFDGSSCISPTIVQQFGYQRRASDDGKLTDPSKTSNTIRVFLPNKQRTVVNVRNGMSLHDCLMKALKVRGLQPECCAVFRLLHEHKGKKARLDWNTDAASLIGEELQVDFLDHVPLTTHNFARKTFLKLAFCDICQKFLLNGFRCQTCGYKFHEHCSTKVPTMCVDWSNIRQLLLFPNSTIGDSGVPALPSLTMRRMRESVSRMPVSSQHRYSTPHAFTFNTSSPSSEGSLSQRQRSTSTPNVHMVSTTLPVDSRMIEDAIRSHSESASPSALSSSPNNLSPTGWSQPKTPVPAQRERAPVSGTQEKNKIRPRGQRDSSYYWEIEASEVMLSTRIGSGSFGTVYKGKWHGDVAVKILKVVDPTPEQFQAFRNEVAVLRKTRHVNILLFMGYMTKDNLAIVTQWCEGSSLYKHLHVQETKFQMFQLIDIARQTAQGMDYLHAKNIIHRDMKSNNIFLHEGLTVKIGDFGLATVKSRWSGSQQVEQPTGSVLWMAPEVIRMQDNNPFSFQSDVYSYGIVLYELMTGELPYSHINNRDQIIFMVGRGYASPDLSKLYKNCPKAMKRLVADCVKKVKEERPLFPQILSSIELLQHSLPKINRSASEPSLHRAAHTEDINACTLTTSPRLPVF

[29] = test system: Serine/threonine-protein kinase B-raf (Homo sapiens), P15056 [V600E]; experiment: Inhibition of BRAF V600E mutant (unknown origin) at 10 uM measured after 40 mins by scintillation counting
Serine/threonine-protein kinase B-raf (Homo sapiens), P15056 [V600E], sequence (P15056 whole entry V600E): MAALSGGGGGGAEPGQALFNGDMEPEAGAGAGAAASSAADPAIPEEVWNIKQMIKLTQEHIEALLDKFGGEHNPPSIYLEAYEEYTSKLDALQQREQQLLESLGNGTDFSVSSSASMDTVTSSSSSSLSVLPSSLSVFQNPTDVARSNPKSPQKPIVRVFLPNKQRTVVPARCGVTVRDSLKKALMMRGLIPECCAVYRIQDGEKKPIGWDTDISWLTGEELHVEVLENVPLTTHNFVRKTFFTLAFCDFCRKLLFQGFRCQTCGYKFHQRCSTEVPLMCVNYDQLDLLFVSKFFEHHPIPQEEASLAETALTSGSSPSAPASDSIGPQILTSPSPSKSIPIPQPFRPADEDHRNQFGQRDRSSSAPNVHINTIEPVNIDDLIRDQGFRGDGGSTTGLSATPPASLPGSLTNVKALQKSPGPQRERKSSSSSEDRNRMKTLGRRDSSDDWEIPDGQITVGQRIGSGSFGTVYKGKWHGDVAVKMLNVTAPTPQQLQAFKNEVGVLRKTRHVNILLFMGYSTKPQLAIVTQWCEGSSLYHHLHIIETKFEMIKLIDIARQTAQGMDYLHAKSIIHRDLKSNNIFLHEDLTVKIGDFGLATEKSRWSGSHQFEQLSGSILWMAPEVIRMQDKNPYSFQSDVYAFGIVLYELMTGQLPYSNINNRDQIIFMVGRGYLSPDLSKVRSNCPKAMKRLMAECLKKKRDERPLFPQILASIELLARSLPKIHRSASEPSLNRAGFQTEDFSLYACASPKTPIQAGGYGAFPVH

CNC(=O)c1cc(Oc2ccc3nc(NC(=O)c4cc(C(F)(F)F)cc(C(F)(F)F)c4)sc3c2)ccn1
growth at 100 µM (NCI-H460): -69% | growth at 0.1 µM (M14): 91% | growth at 0.01 µM [1]: 99% | GI50 [2]: 3.76 µM | LC50 (50% lethal concentration) [2]: > 100 µM | TGI [2]: 22.8 µM | growth at 0.01 µM (Malme-3M [3]): 94% | growth at 1 µM (A498 [4]): 66% | growth at 0.01 µM [5]: 93% | growth at 0.01 µM [6]: 85% | growth at 100 µM (NCI-H322M): -42% | growth at 0.01 µM [7]: 96% | growth at 1 µM [8]: 94% | growth at 0.01 µM (A498 [9]): 69% | growth at 1 µM [10]: 80% | GI50 (Malme-3M [11]): 2.03 µM | TGI (Malme-3M [11]): 6.65 µM | CC50 (Malme-3M [11]): > 100 µM | growth at 100 µM [12]: -38% | growth at 0.1 µM (NCI-H226 [13]): 99% | growth at 100 µM [14]: -56% | growth at 1 µM [15]: 96% | growth at 0.01 µM (MDA-MB-468 [16]): 92% | growth at 1 µM (SK-MEL-28): 87% | growth at 0.01 µM [17]: 89% | growth at 100 µM (NCI-H226 [18]): -59% | growth at 100 µM [19]: -42% | GI50 (MDA-MB-231): 2.88 µM | TGI (MDA-MB-231): 6.63 µM | CC50 (MDA-MB-231): 39.8 µM | growth at 1 µM (MDA-MB-468 [20]): 95% | growth at 100 µM [21]: -13% | growth at 0.01 µM [22]: 98% | growth at 0.1 µM (ACHN): 100% | growth at 0.1 µM (A549 [23]): 101% | growth at 0.1 µM (KM12): 99% | GI50 [24]: 3.15 µM | TGI [24]: 13.3 µM | CC50 [24]: > 100 µM | growth at 0.1 µM (NCI-H23): 95% | growth at 0.1 µM [25]: 102% | growth at 0.01 µM (A549 [26]): 92% | growth at 0.01 µM [27]: 95%

CNC(=O)c1cc(Oc2ccc3nc(NC(=O)Nc4ccc(Cl)c(Cl)c4)sc3c2)ccn1
growth at 100 µM (NCI-H460): -17% | growth at 0.1 µM (M14): 96% | growth at 0.01 µM [1]: 105% | GI50 [2]: 1.99 µM | LC50 (50% lethal concentration) [2]: 7.95 µM | TGI [2]: 3.98 µM | growth at 0.01 µM (Malme-3M [3]): 97% | growth at 1 µM (A498 [4]): 115% | growth at 0.01 µM [5]: 96% | growth at 0.01 µM [6]: 86% | growth at 100 µM (NCI-H322M): 4% | growth at 1 µM [8]: 95% | inhibition [28]: 98.6% | growth at 0.01 µM (A498 [9]): 101% | GI50 (Malme-3M [11]): 1.51 µM | TGI (Malme-3M [11]): 3.3 µM | CC50 (Malme-3M [11]): 7.21 µM | growth at 100 µM [12]: -49% | growth at 0.1 µM (NCI-H226 [13]): 106% | growth at 100 µM [14]: -69% | growth at 1 µM [15]: 100% | growth at 0.01 µM (MDA-MB-468 [16]): 94% | growth at 1 µM (SK-MEL-28): 88% | growth at 0.01 µM [17]: 98% | growth at 100 µM (NCI-H226 [18]): -59% | growth at 100 µM [19]: -50% | GI50 (MDA-MB-231): 2.15 µM | TGI (MDA-MB-231): 6.43 µM | CC50 (MDA-MB-231): > 100 µM | growth at 1 µM (MDA-MB-468 [20]): 86% | growth at 100 µM [21]: -68% | growth at 0.01 µM [22]: 98% | growth at 0.1 µM (ACHN): 94% | growth at 0.1 µM (A549 [23]): 96% | inhibition [29]: 67.6% | growth at 0.1 µM (KM12): 100% | GI50 [24]: 2.77 µM | TGI [24]: 6.66 µM | CC50 [24]: > 100 µM | growth at 0.1 µM (NCI-H23): 92% | growth at 0.1 µM [25]: 115% | growth at 0.01 µM (A549 [26]): 98% | growth at 0.01 µM [27]: 99%
